Reference: ChEMBL document CHEMBL1201862, “PubChem BioAssay data set” (2004)
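Values below derive from 48-hour exposures of cells grown in 96-well plates, with endpoints linearly interpolated between the two concentrations bracketing the appropriate inhibition level. The concentration for 50% growth inhibition is given as GI50.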 Calls of active or inactive are those of the source. No stated cut-off is given here; in the data, active = GI50 up to about 1.1 µM and inactive = higher.

How the values were obtained:
Test in all cases: inhibition of tumour cell growth, NCI panel, 48 h
NCI-H460 = test system: NCI-H460
KM12 = test system: KM12
HCC 2998 = test system: HCC 2998
U-251 = test system: U-251
CCRF-CEM = test system: CCRF-CEM
EKVX = test system: EKVX
SK-OV-3 = test system: SK-OV-3
UACC-62 = test system: UACC-62
A498 = test system: A498
M14 = test system: M14
SK-MEL-5 = test system: SK-MEL-5
SK-MEL-28 = test system: SK-MEL-28
OVCAR-4 = test system: OVCAR-4
MOLT-4 = test system: MOLT-4
SK-MEL-2 = test system: SK-MEL-2
RXF 393 = test system: RXF 393

Row | Compound | GI50 (NCI-H460) | GI50 (KM12) | GI50 (HCC 2998) | GI50 (U-251) | GI50 (CCRF-CEM) | GI50 (EKVX) | GI50 (SK-OV-3) | GI50 (UACC-62) | GI50 (A498) | GI50 (M14) | GI50 (SK-MEL-5) | GI50 (SK-MEL-28) | GI50 (OVCAR-4) | GI50 (MOLT-4) | GI50 (SK-MEL-2) | GI50 (RXF 393)
1 | CCCCCC(=O)N[C@H]1CCc2cc(OC)c(OC)c(OC)c2-c2ccc(SC)c(=O)cc21 | < 0.01 µM (active) | < 0.01 µM (active) | 0.0212 µM (active) | 0.0224 µM (active) | 0.0254 µM (active) | 0.0395 µM (active) | 0.0224 µM (active) | 0.0204 µM (active) | 0.0172 µM (active) | 0.016 µM (active) | 0.014 µM (active) | 0.0223 µM (active) | 17.5 µM (inactive) | 0.0516 µM (active) |  | 
2 | CC(=O)O[C@H]1CC[C@@]2(C)C(=CC[C@@H]3C2CC[C@]2(C)Nc4nc5ccccc5cc4CC32)C1 (stereo not given in full) | 4.57 µM (inactive) | 3.88 µM (inactive) | 2.98 µM (inactive) | 2.67 µM (inactive) | 3.54 µM (inactive) | 5.74 µM (inactive) | 2.82 µM (inactive) | 10.8 µM (inactive) | 5.47 µM (inactive) | 2.19 µM (inactive) | 4.1 µM (inactive) |  | 8.53 µM (inactive) | 3.3 µM (inactive) | 17 µM (inactive) | 2.07 µM (inactive)
3 | CN1C(OCc2ccccc2)c2c(ccc3c2OCO3)C2C=Cc3cc4c(cc3C21)OCO4 (stereo not given) | 1.48 µM (inactive) | 1.01 µM (active) | 1.63 µM (inactive) | 1.51 µM (inactive) | 0.254 µM (active) | 1.62 µM (inactive) | 1.22 µM (inactive) | 1.2 µM (inactive) |  | 0.885 µM (active) | 1.31 µM (inactive) | 0.455 µM (active) | 1.69 µM (inactive) | 0.223 µM (active) | 1.55 µM (inactive) | 1.1 µM (active)
4 | CC(=O)Nc1ccc(-c2nnc(SCC(=O)Nc3ccc(Cl)cc3)o2)cc1 | 10 µM (inactive) | 13.7 µM (inactive) | 17 µM (inactive) | 3.38 µM (inactive) | 3.5 µM (inactive) | 21 µM (inactive) | 16.4 µM (inactive) | 4.89 µM (inactive) | 14.8 µM (inactive) | 14.5 µM (inactive) | 5.69 µM (inactive) | 13.2 µM (inactive) | 13.1 µM (inactive) | 11.2 µM (inactive) | 17.5 µM (inactive) | 10 µM (inactive)
5 | COc1ccc(C2S/C(=C\c3ccc(OC)cc3OC)C(=O)N2NC(=O)Cc2ccccc2)cc1 (stereo not given) | > 100 µM (inactive) | > 100 µM (inactive) |  | > 100 µM (inactive) | 89.5 µM (inactive) |  | > 100 µM (inactive) | > 100 µM (inactive) | > 100 µM (inactive) | > 100 µM (inactive) | > 100 µM (inactive) |  | > 100 µM (inactive) | > 100 µM (inactive) | > 100 µM (inactive) | > 100 µM (inactive)
6 | COc1ccccc1NC(=O)CC(=O)N1N=C(C)C(/N=N/c2ccc(S(N)(=O)=O)cc2)C1=O (stereo not given) | > 100 µM (inactive) | > 100 µM (inactive) | > 100 µM (inactive) | > 100 µM (inactive) |  | > 100 µM (inactive) | > 100 µM (inactive) | > 100 µM (inactive) | > 100 µM (inactive) | > 100 µM (inactive) | > 100 µM (inactive) | > 100 µM (inactive) | > 100 µM (inactive) | > 100 µM (inactive) | > 100 µM (inactive) | > 100 µM (inactive)
7 | COc1cc2c3c(c1OC)/C(=N/OS(=O)(=O)c1ccc(C)cc1)CC3N(S(=O)(=O)c1ccc(C)cc1)CC2 (stereo not given) | > 100 µM (inactive) | > 100 µM (inactive) | > 100 µM (inactive) | > 100 µM (inactive) | > 100 µM (inactive) | > 100 µM (inactive) | > 100 µM (inactive) | > 100 µM (inactive) | > 100 µM (inactive) | > 100 µM (inactive) | > 100 µM (inactive) | > 100 µM (inactive) | > 100 µM (inactive) |  |  | 53.5 µM (inactive)
8 | O=C(/C=C/c1ccccc1O)c1ccccc1Cl | 34 µM (inactive) | 24.6 µM (inactive) | 38.1 µM (inactive) | 39.9 µM (inactive) | 19.3 µM (inactive) | 41.6 µM (inactive) | 45.8 µM (inactive) | 67.5 µM (inactive) | 90.4 µM (inactive) | 54.5 µM (inactive) | 42.3 µM (inactive) | > 100 µM (inactive) | 19.2 µM (inactive) | 30.7 µM (inactive) | 61.5 µM (inactive) | 43.1 µM (inactive)
9 | CN(C)CCONC(=O)C12CC3CC(CC(C3)C1)C2 | > 100 µM (inactive) | > 100 µM (inactive) |  | > 100 µM (inactive) | > 100 µM (inactive) | > 100 µM (inactive) | > 100 µM (inactive) | > 100 µM (inactive) | > 100 µM (inactive) | > 100 µM (inactive) | > 100 µM (inactive) | > 100 µM (inactive) |  | > 100 µM (inactive) | > 100 µM (inactive) | > 100 µM (inactive)
10 | O=C(NC(=O)c1cn(CCNCCO)c(=O)[nH]c1=O)OCc1ccccc1 | > 100 µM (inactive) | > 100 µM (inactive) |  | > 100 µM (inactive) | > 100 µM (inactive) | > 100 µM (inactive) | > 100 µM (inactive) | > 100 µM (inactive) |  | > 100 µM (inactive) | > 100 µM (inactive) | > 100 µM (inactive) | > 100 µM (inactive) | > 100 µM (inactive) |  | > 100 µM (inactive)
11 | Cc1[nH]c2ccccc2c1C1CC(=O)NC1=O (stereo not given) | > 100 µM (inactive) | > 100 µM (inactive) | > 100 µM (inactive) | > 100 µM (inactive) | > 100 µM (inactive) | > 100 µM (inactive) | > 100 µM (inactive) | > 100 µM (inactive) | > 100 µM (inactive) | > 100 µM (inactive) | > 100 µM (inactive) | > 100 µM (inactive) | > 100 µM (inactive) | > 100 µM (inactive) | > 100 µM (inactive) | > 100 µM (inactive)
12 | CCc1cccc(C(C)CC)c1/N=C(/NC(=O)c1ccccc1C(=O)N/C(=N/c1c(CC)cccc1C(C)CC)SC)SC (stereo not given) | 50.4 µM (inactive) | 36 µM (inactive) | 49.8 µM (inactive) | 26.2 µM (inactive) | 27.5 µM (inactive) | 35.6 µM (inactive) | 28.6 µM (inactive) | 20.9 µM (inactive) |  | 20 µM (inactive) |  | 45 µM (inactive) | 54.3 µM (inactive) | 29.2 µM (inactive) | 40.9 µM (inactive) | 35.5 µM (inactive)
13 | Clc1ccc(OCc2nnc3n2N=C(c2ccc(Br)cc2)CS3)cc1 | 17.7 µM (inactive) | 80.7 µM (inactive) | 84.5 µM (inactive) | 30.7 µM (inactive) | > 100 µM (inactive) |  | 15 µM (inactive) | 27.1 µM (inactive) | 5.36 µM (inactive) | > 10 µM (inactive) | > 10 µM (inactive) | 28 µM (inactive) | 7.89 µM (inactive) | > 100 µM (inactive) | 23.4 µM (inactive) | 12.1 µM (inactive)
14 | O=C1c2c(c(-c3ccccc3)c(-c3ccccc3)c(-c3ccccc3)c2-c2ccccc2)C(=O)N1c1cccc(Br)c1 | > 100 µM (inactive) | > 100 µM (inactive) | > 100 µM (inactive) | > 100 µM (inactive) | > 100 µM (inactive) | > 100 µM (inactive) | > 100 µM (inactive) | > 100 µM (inactive) | > 100 µM (inactive) | 58.3 µM (inactive) | > 100 µM (inactive) |  | > 100 µM (inactive) | > 100 µM (inactive) | > 100 µM (inactive) | > 100 µM (inactive)
15 | CC(C)(c1ccccc1)c1ccc(Oc2ccc3c(c2)-c2nc-3nc3[nH]c(nc4nc(nc5[nH]c(n2)c2ccc(Oc6ccc(C(C)(C)c7ccccc7)cc6)cc52)-c2cc(Oc5ccc(C(C)(C)c6ccccc6)cc5)ccc2-4)c2ccc(Oc4ccc(C(C)(C)c5ccccc5)cc4)cc32)cc1 | > 100 µM (inactive) | > 100 µM (inactive) | > 100 µM (inactive) | 71.3 µM (inactive) | > 100 µM (inactive) | > 100 µM (inactive) | > 100 µM (inactive) | > 100 µM (inactive) | > 100 µM (inactive) | > 100 µM (inactive) | > 100 µM (inactive) | > 100 µM (inactive) |  | > 100 µM (inactive) | > 100 µM (inactive) | 23.9 µM (inactive)
16 | Cc1ccc(S(=O)(=O)N/N=C/c2oc(-c3ccncc3)c(-c3ccncc3)c2[N+](=O)[O-])cc1 | > 100 µM (inactive) | > 100 µM (inactive) | > 100 µM (inactive) | > 100 µM (inactive) | > 100 µM (inactive) | > 100 µM (inactive) | > 100 µM (inactive) | > 100 µM (inactive) | > 100 µM (inactive) | > 100 µM (inactive) | > 100 µM (inactive) | > 100 µM (inactive) | > 100 µM (inactive) | > 100 µM (inactive) | > 100 µM (inactive) | > 100 µM (inactive)
17 | C=CCO[C@H]1CC[C@@]2(C)C(CC[C@]3(C)C2CC=C2[C@@H]4[C@@H](C)C(C)CC[C@]4(C(=O)O)CCC23C)C1(C)C (stereo not given in full) | 17.5 µM (inactive) | 16.1 µM (inactive) | 17.1 µM (inactive) | 16.1 µM (inactive) | 13.2 µM (inactive) | 21.2 µM (inactive) | 16.9 µM (inactive) | 14.4 µM (inactive) | 17.3 µM (inactive) | 17.5 µM (inactive) | 16.5 µM (inactive) | 15.6 µM (inactive) | 17.6 µM (inactive) |  |  | 6.05 µM (inactive)
18 | CCCC(C)n1c(C)nc2c1C(=O)c1ccccc1C2=O (stereo not given) | 4.6 µM (inactive) | 22.9 µM (inactive) | 40.4 µM (inactive) | 12.2 µM (inactive) | 30.3 µM (inactive) | 43.6 µM (inactive) | 42.7 µM (inactive) | 6.78 µM (inactive) |  | 34.6 µM (inactive) | 13.3 µM (inactive) | 33.7 µM (inactive) | 36.1 µM (inactive) | 18.5 µM (inactive) | 20.7 µM (inactive) | 20 µM (inactive)
